Test results: patent publication US10555987B2, “GHRH agonists for the treatment of ischemic disorders” (UNIVERSITY OF MIAMI, priority 2012, dated 2020)
Non-standard residues stand in square brackets, D forms with d. Residues, ends and D or L forms follow the SMILES beside them. *: point of attachment. Desaminotyrosyl = O=C(CCc1ccc(O)cc1)*; Agmatine = N=C(N)NCCCCN*; Nle = CCCC[C@H](N)C(=O)O; Orn = NCCC[C@H](N)C(=O)O; Abu = CC[C@H](N)C(=O)O

Legend:
GHRH receptor [1] = biological target: T1, GHRH receptor (Homo sapiens, UniProt Q02643); assay: GHRH receptor binding, competition with 125I-labeled JV-1-42, human pituitary membrane homogenates (Table 5); design: Normal human pituitaries were purchased from the National Hormone and Peptide Program; tissue National Hormone and Peptide Program (A.F. Parlow, Harbor-UCLA Medical Center, Torrance, Calif.); host or cells: normal human pituitary, membrane fraction
T1 sequence (Q02643 23-423): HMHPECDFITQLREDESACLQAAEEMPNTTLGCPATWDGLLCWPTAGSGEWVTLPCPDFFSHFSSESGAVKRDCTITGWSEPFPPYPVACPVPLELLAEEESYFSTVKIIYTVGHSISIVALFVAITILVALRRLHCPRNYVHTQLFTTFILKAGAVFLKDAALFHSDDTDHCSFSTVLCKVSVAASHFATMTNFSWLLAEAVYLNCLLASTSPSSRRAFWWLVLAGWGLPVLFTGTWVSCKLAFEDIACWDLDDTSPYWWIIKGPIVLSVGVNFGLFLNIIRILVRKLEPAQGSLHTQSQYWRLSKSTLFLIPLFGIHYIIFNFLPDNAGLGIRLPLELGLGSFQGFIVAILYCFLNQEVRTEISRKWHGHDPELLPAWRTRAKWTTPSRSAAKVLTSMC
Protocol: Normal human pituitaries were purchased from the National Hormone and Peptide Program (A.F. Parlow, Los Angeles, County Harbor-UCLA Medical Center, Torrance, Calif.). Briefly, in competitive binding analysis, ^125I-labeled JV-1-42 ([…]) was displaced by GHRH agonists at 10^−6 to 10^−12 M.
The final binding affinities were expressed as IC50 values and were calculated by using the LIGAND PC computerized curve-fitting program of Munson and Rodbard as modified by McPherson.

GH release = assay: In vivo endocrine activity, GH release after subcutaneous administration (Table 9); conditions: rat; for GH releasing potency relative to JI-38 (=1): subcutaneous (s.c.) injection
Protocol: Subcutaneous Administration. Adult male rats were used and anesthetized with pentobarbital (6 mg/100 g, b.w.), by i.p. injection. […] Blood samples were taken from the jugular vein 5, 15 and/or 30 minutes after the injection. The blood samples were centrifuged, plasma was removed and the GH level was measured byELISA. The results are summarized in terms of potency in Table 9.

[2] = tested on: myocardial infarction (Fisher-344 rats); assay: Hemodynamic analysis (pressure-volume loops), body and heart weight after MI, compared to JI-38 (Example 15, Table 16); type: in vivo, rat; design: key to ESP (End-Systolic Pressure) / EDP (End-Diastolic Pressure) / ESV (End-Systolic Volume) / PRSW (Preload Recruitable Stroke Work) / Ees (End-systolic Elastance) / dP/dt max (peak rate of the pressure rise) / dP/dt max_EDV / dP/dt min / TAU (relaxation time constant calculated by Weiss method) / SV (Stroke Volume) / CO (Cardiac Output) / SW (Stroke Work) / EF / Ea/Ees / Ea (arterial Elastance): ↓: downward arrow denotes lower than JI-38; ↑: upward arrow denotes greater than JI-38; =denotes same as JI-38; ⬇⬇: double arrow denotes greater effect; ⬆⬆: double arrow denotes greater effect; conditions: rat MI model, s.c. twice daily; pressure-volume loops; expressed in comparison to JI-38
Protocol: Rats were anesthetized by intramuscular injection of a mixture of ketamine (100 mg/kg), xylazine (20 mg/kg) and acepromazine (10 mg/kg). A 2-F micromanometer tipped catheter (SPR-838, Millar Instruments, Houston, Tex.) was inserted into the right carotid artery and advanced retrograde into the left ventricle. Measurements were calibrated by injecting a hypertonic saline (15%) bolus to determine extra-ventricular conductance; relative volume units were converted to actual volume using the cuvette calibration method. All analyses were performed using PVAN 3.0 software (Millar Instruments, Houston, Tex.).
(§1) Myocardial infarction (MI) was induced by permanent ligation of the left coronary artery in female 6-month-old Fisher-344 rats. Following experimental myocardial infarction (MI), rats were randomly assigned to receive either placebo, JI-38, or one of the following new analogs of GHRH: MR-30 l(P-21301), MR-303(P-21303), MR-356(P-20356), MR-502(25502), MR-350(P-20350), MR-36 l(P-20361), MR-367(P-20367), MR-403(P-27403), MR-404(P-27404), and MR-409(P-27409) (10 rats per each group). The GHRH peptide agonists were adminsistered starting 2 hours post-surgery, 1 week, 2 week, and 4 week intervals. All treatment was given subcutaneously twice daily. Cardiac performance was assessed by serial echocardiography and hemodynamic analysis derived from pressure-volume loops as described before.
The hemodynamic studies are shown in FIGS. 16-33 and the results are summarized in Table 16 (results were expressed in comparison to JI-38; downward arrow denotes lower than JI-38; upward arrow denotes greater than JI-38; =denotes same as JI-38; and double arrow denotes greater effect).

[3] = tested on: myocardial infarction (Fisher-344 rats); assay: Serial echocardiography after MI, compared to JI-38 (Example 15, Table 15); type: in vivo, rat; design: key to LVEDD: Left Ventricular End Diastolic Diameter / LVESD: Left Ventricular End Systolic Diameter / VD: Ventricular Diastole / VS: Ventricular Systole / EF: Ejection Fraction / FS: Fraction Shortening: ↓: downward arrow denotes lower than JI-38; ↑: upward arrow denotes greater than JI-38; =denotes same as JI-38; ⬇⬇: double arrow denotes greater effect; ⬆⬆: double arrow denotes greater effect; conditions: in comparison to JI-38
Protocol: Echocardiographic measurements were obtained at baseline, 2 days, 1, 2 and 4 weeks. Echocardiographic assessments were performed in anesthetized rats (2% isoflurane inhalation) using a Vevo-770 echocardiogram (Visual Sonics Inc., Toronto, Ontario, Canada) equipped with a 17.5-MHz transducer. Cardiac dimensions: LV end diastolic (LVEDD), end systolic (LVESD) diameters and fractional shortening (FS) were recorded from M-mode images using averaged measurements from 3 to 5 consecutive cardiac cycles according to the American Society of Echocardiography. Ejection fraction (EF) was calculated from bi-dimensional long-axis parasternal views taken through the infarcted area. All images were analyzed using Vevo 770 3.0.0 software (Visual Sonics Inc., Toronto, Ontario, Canada).
as §1
The echocardiographic experiments are shown in FIGS. 10-15 and the results are summarized in Table 15 (results were expressed in comparison to JI-38; downward arrow denotes lower than JI-38; upward arrow denotes greater than JI-38; =denotes same as JI-38; and double arrow denotes greater effect).

GHRH receptor [4] = biological target: T1, GHRH receptor; assay: GHRH receptor binding, competition with 125I-labeled JV-1-42, human pituitary membrane homogenates (Table 7); design: Normal human pituitaries were purchased from the National Hormone and Peptide Program; tissue National Hormone and Peptide Program (A.F. Parlow, Harbor-UCLA Medical Center, Torrance, Calif.); host or cells: normal human pituitary, membrane fraction
Text: Normal human pituitaries were purchased from the National Hormone and Peptide Program (A.F. Parlow, Los Angeles, County Harbor-UCLA Medical Center, Torrance, Calif.).

For `CCCC[C@H](NC(=O)[C@@H](NC(=O)[C@H](CC(=O)O)NC(=O)[C@H](CCC(N)=O)NC(=O)[C@H](CC(C)C)NC(=O)[C@H](CC(C)C)NC(=O)[C@H](CCCN)NC(=O)[C@H](CCCNC(=N)N)NC(=O)[C@H](C)NC(=O)[C@H](CO)NC(=O)[C@H](CC(C)C)NC(=O)[C@H](CCC(N)=O)NC(=O)[C@H](CC)NC(=O)[C@H](CC(C)C)NC(=O)[C@@H](NC(=O)[C@H](CCCN)NC(=O)[C@H](CCCNC(=N)N)NC(=O)[C@H](Cc1ccc(O)cc1)NC(=O)[C@H](CO)NC(=O)[C@H](CCC(N)=O)NC(=O)[C@@H](NC(=O)[C@H](Cc1ccccc1)NC(=O)[C@@H](NC(=O)[C@H](C)NC(=O)[C@H](CC(=O)O)NC(=O)[C@@H](C)NC(=O)CCc1ccc(O)cc1)[C@@H](C)CC)[C@@H](C)O)C(C)C)[C@@H](C)CC)C(=O)N[C@@H](CC(=O)O)C(=O)NCCCCNC(=N)N` [Peptide P-20350, [Dat^1, D-Ala^2, Gln^8, Orn^12, Abu^15, Orn^21, Nle^27, Asp^28, Agm^29]hGHRH(1-29) NH2] (Desaminotyrosyl-[dA]DAIFTQSYR[Orn]VL[Abu]QLSAR[Orn]LLQDI[Nle]D-Agmatine), the IC50 (GHRH receptor [1]; 125I-JV-1-42, human pituitary membranes, Table 5) was 0.04 nM, the “Relative affinity (Binding potency) vs GHRH” value (GHRH receptor [1]; GHRH(1-29) = 1, Table 5) was 101.5 and the “Relative affinity (Binding potency) vs JI-38” value (GHRH receptor [1]; JI-38 = 1, Table 5) was 42.7. The “Stimulation of growth hormone levels after subcutaneous administration (in words)” value (GH release; s.c.) was “stimulated greater growth hormone levels than hGHRH or JI-38”, the “GH releasing potency relative to JI-38 (=1)” value (GH release; 15 min after) was 1.53 and the “GH releasing potency relative to JI-38 (=1)” value (GH release; 30 min after) was 1.17. For the same compound, the “CO (Cardiac Output)” value [2] was “↑”, the “EDP (End-Diastolic Pressure)” value [2] was “↑” and the EF [2] was “↑”. For the same compound, the “ESP (End-Systolic Pressure)” value [2] was “↑”, the “ESV (End-Systolic Volume)” value [2] was “=” and the “Ea (arterial Elastance)” value [2] was “=”. For the same compound, the Ea/Ees [2] was “=”, the “Ees (End-systolic Elastance)” value [2] was “=” and the “PRSW (Preload Recruitable Stroke Work)” value [2] was “=”. The “SV (Stroke Volume)” value [2] was “=”, the “SW (Stroke Work)” value [2] was “↓” and the “TAU (relaxation time constant calculated by Weiss method)” value [2] was “=”. The “dP/dt max (peak rate of the pressure rise)” value [2] was “=”, the “dP/dt max_EDV” value [2] was “=” and the dP/dt min [2] was “=”. The “EF: Ejection Fraction” value [3] was “=”, the “FS: Fraction Shortening” value [3] was “=” and the “LVEDD: Left Ventricular End Diastolic Diameter” value [3] was “↓”. The “LVESD: Left Ventricular End Systolic Diameter” value [3] was “=”, the “VD: Ventricular Diastole” value [3] was “=” and the “VS: Ventricular Systole” value [3] was “=”. The IC50 (GHRH receptor [4]; 125I-JV-1-42, human pituitary membranes, Table 7) was 0.52 nM and the “Relative affinity (Binding potency) vs JI-38” value (GHRH receptor [4]; JI-38 = 1, Table 7) was 8.37.
